# Activity calls are given as the source filed them.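 The calls were made as follows: active = lowers flux through the TASK3 potassium channel at some tested dose, with a dose response curve; inactive = no inhibition at any dose or no dose response.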
# Target: Potassium channel subfamily K member 9 (Homo sapiens) (UniProt Q9NPC2)
# Experiment: KCNK9 flux blockade, concentration-response – cell-based, FluxOR thallium flux, selectivity assay for TASK1 inhibitor project, SAR follow-up (AID 652211)
# Settings: KCNK9-expressing cells, FluxOR thallium flux fluorescence
# Chain of Potassium channel subfamily K member 9 (Homo sapiens) (Q9NPC2 whole entry, looked up): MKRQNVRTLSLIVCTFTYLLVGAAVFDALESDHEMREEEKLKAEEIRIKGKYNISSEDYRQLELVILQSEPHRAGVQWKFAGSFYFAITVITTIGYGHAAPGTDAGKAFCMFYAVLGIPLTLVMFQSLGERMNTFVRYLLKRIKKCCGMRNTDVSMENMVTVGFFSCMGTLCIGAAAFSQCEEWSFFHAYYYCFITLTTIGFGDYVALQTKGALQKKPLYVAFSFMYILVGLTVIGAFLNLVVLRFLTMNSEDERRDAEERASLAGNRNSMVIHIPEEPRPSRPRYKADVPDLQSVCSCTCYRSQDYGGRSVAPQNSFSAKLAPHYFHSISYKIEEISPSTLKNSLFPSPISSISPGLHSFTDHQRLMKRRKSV
row,Compound,IC50
1,CC(C)c1ccccc1C(=O)Nc1cccc(NC(=O)c2ccccc2OC(F)(F)F)c1,730 nM
2,Cc1cccc(C(=O)Nc2cccc(NC(=O)c3cccc(F)c3)c2)c1,600 nM

# Same assay, conditions: KCNK9-expressing cells, FluxOR thallium flux fluorescence; at 30 µM (top of the series)
row,Compound,"thallium flux ratio, lower = inhibition"
1,CCOc1ccccc1NC(=O)c1cccc(NC(=O)C2CCOC2)c1 (centres undefined),inactive
2,CCOc1ccccc1NC(=O)c1cccc(NC(=O)c2ccc(OC)cc2)c1,inactive
3,Cc1cccc(C(=O)Nc2cccc(NC(=O)c3ccncc3)c2)c1,inactive
4,O=C(Nc1cccc(NC(=O)c2ccccc2)c1)c1ccccc1,inactive
5,O=C(Nc1cccc(NC(=O)c2cccnc2)c1)c1ccccc1,inactive
6,O=C(Nc1cccc(NC(=O)c2cccs2)c1)c1ccccc1,inactive
7,O=C(Nc1cccc(NC(=O)c2ccco2)c1)c1ccccc1,inactive
8,Cc1cccc(C(=O)Nc2cccc(NC(=O)c3ccc(N(C)C)cc3)c2)c1,inactive
9,CCOc1ccccc1NC(=O)c1cccc(NC(=O)c2ccc(C(F)(F)F)cc2)c1,inactive
10,Cc1cccc(C(=O)Nc2cccc(NC(=O)c3ccc(Cl)cc3)c2)c1,inactive
11,Cc1cccc(C(=O)Nc2cccc(C(=O)Nc3ccccc3)c2)c1,inactive
12,Cc1cccc(C(=O)Nc2ccccc2C(=O)Nc2ccccc2)c1,inactive
13,O=C(Nc1cccc(NC(=O)c2ccncc2)c1)c1ccccc1,inactive
14,COc1ccc(C(=O)Nc2cccc(NC(=O)c3cccc(C)c3)c2)cc1,inactive
15,O=C(Nc1cccc(NC(=O)c2ccc(F)cc2)c1)c1ccccc1,inactive
16,Cc1cccc(NC(=O)c2ccccc2NC(=O)c2ccccc2)c1,inactive
17,COc1ccccc1C(=O)Nc1cc(NC(=O)c2ccccc2C(C)C)ccc1F,inactive
18,COc1ccc(C(=O)Nc2cccc(NC(=O)c3ccccc3)c2)cc1,inactive
19,O=C(Nc1cccc(NC(=O)c2ccoc2)c1)c1ccccc1,inactive

row,Compound,"thallium flux ratio, lower = inhibition"
1,O=C(Nc1cccc(NC(=O)c2cccc(Cl)c2)c1)c1ccccc1,inactive
2,O=C(Nc1cccc(NC(=O)c2ccsc2)c1)c1ccccc1,inactive
3,Cc1ccc(C(=O)Nc2cccc(NC(=O)c3ccccc3)c2)cc1,inactive
4,Cc1cccc(C(=O)Nc2ccccc2NC(=O)c2ccccc2)c1,inactive
5,O=C(Nc1cccc(NC(=O)c2cccc(F)c2)c1)c1ccccc1,inactive
6,CCOc1ccccc1NC(=O)c1cccc(NC(=O)C2CCCO2)c1 (centres undefined),inactive
7,O=C(Nc1cccc(NC(=O)c2ccc(Cl)cc2)c1)c1ccccc1,inactive
8,CCOc1ccc(NC(=O)c2cccc(NC(=O)C3CCCC3)c2)cc1,inactive
9,CCOc1ccccc1NC(=O)c1cccc(C(=O)NC2CCCC2)c1,inactive
10,Cc1cccc(S(=O)(=O)Nc2cccc(NC(=O)c3ccccc3)c2)c1,inactive
11,Cc1cccc(NC(=O)c2cccc(NC(=O)c3ccccc3)c2)c1,inactive
12,CN(C)c1ccc(C(=O)Nc2cccc(NC(=O)c3ccccc3)c2)cc1,inactive
13,O=C(Nc1cccc(NC(=O)c2cccc(C(F)(F)F)c2)c1)c1ccccc1,inactive
14,CCOc1ccccc1NC(=O)c1cccc(NC(=O)c2ccc(Cl)cc2)c1,inactive
15,Cc1cccc(C(=O)Nc2cccc(NC(=O)c3ccc(C(F)(F)F)cc3)c2)c1,inactive
16,CC(C)(C)c1ccc(C(=O)Nc2cccc(NC(=O)c3ccccc3)c2)cc1,inactive
17,Cc1cccc(C(=O)Nc2cccc(NC(=O)c3ccc(C(C)(C)C)cc3)c2)c1,inactive
18,O=C(Nc1cccc(NC(=O)c2ccc(C(F)(F)F)cc2)c1)c1ccccc1,inactive

# Source: PubChem BioAssay AID652211 (Johns Hopkins Ion Channel Center, 2013)
